Experimental data: PMC11858854, “In Vitro and In Vivo Assessment of Pharmacokinetic Profile of Peramivir in the Context of Inhalation Therapy” (Pharmaceuticals, 2025)

Assays:
[1] = Tissue distribution study in rats; assay type: in vivo; details: rat
Method: Tissue distribution characteristics were studied following different deliveries of i.v. 3 mg/kg, i.t. 0.3 mg/kg, and i.t. 3 mg/kg in rats. The rats were euthanized at 5 min, 30 min, 1 h, 4 h, 12 h, and 24 h after administration. Blood was collected by puncture of the fundus venous plexus, and bronchoalveolar lavage was performed to obtain bronchoalveolar lavage (BAL) fluid samples, and then the main tissues were obtained by dissection. All the tissues were thoroughly rinsed in ice physiological saline, then weighed and stored at −40 °C for analysis.
Whole blood was placed in EP tubes containing sodium heparin, and plasma was extracted by centrifugation at 4 °C, 5000× g for 10 min. […] Drug concentrations in the samples were determined using the LC-MS/MS method and drug concentrations in the BAL were converted to drug concentrations in epithelial lining fluid (ELF) using the urea nitrogen correction method.
The apparent volume of ELF in BAL fluid was determined by the urea dilution method described by Rennard. The estimated concentration of drugs in ELF was calculated as follows:CELF = CBAL × (UPlasma/UBAL)(1) where CBAL is the measured drug concentration in BAL fluid and UPlasma and UBAL are the measured concentrations of urea nitrogen in plasma and BAL fluid, respectively.
The Kp of each tissue was calculated as follows:Kp = AUC(0–t, tissue)/AUC(0–t, plasma)(2)

human OCT1 = biological target: T1, human OCT1 (Homo sapiens, UniProt O15245); test: Uptake study, HEK293 cells overexpressing OCT1; assay type: in vitro ADME
T1 construct: host or cells: HEK293 (HEK293-OCT1); control HEK293-MOCK
T1 sequence (O15245 1-554): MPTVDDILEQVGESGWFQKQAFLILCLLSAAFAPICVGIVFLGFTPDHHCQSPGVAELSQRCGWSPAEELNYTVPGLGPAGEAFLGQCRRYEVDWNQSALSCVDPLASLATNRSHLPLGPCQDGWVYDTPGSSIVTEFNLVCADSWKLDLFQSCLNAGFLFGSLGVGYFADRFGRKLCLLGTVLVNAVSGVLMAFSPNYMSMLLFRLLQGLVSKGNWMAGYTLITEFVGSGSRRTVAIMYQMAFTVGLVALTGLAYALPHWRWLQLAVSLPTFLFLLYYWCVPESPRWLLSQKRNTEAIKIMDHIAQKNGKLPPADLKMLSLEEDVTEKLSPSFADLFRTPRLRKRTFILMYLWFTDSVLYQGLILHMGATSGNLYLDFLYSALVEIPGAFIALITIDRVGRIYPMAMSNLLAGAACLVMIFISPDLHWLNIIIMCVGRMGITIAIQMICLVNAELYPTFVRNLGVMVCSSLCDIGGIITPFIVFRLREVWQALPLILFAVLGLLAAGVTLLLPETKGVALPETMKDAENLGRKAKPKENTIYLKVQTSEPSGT
Method: (§1) All cells (HEK293-MOCK, HEK293-OCT1, HEK293-OCT2, MDCK-MOCK, MDCK-OCTN1, and MDCK-OCTN2) were cultured in DMEM medium supplemented with 10% FBS and PS (100 U/mL), at 37 °C in a humidified 5% CO2 incubator. Cells were seeded on 24-well plates at a density of 1 × 10^4 cells/well. For the uptake assay, the DMEM media were removed, and the cells were washed with pre-warmed Hank’s buffer three times (1 mL/well). Subsequent addition of inhibitor-free/inhibitor-containing buffer was pre-incubated for 30 min at 37 °C prior to the initiation of the uptake experiment. After the pre-incubating buffer was removed, 200 μL of pre-warmed test drugs solution (Hank’s buffer containing 10 µM and 50 µM peramivir) or a mixture of test drugs and inhibitor was added into each well, and the plates were incubated at 37 °C for 5 min. At the end of incubation, cells were washed and lysed as described above. The cell lysate was collected and stored at −40 °C for LC-MS/MS analysis and protein measurement. The negative control (MOCK cells) and positive control were included simultaneously.

human OCTN2 = biological target: T2, human OCTN2 (Homo sapiens, UniProt O76082); test: Uptake study, MDCK cells overexpressing OCTN2; assay type: in vitro ADME
T2 construct: Huidi Jiang, Zhejiang University; host or cells: MDCK (MDCK-OCTN2); control MDCK-MOCK
T2 sequence (O76082 1-557): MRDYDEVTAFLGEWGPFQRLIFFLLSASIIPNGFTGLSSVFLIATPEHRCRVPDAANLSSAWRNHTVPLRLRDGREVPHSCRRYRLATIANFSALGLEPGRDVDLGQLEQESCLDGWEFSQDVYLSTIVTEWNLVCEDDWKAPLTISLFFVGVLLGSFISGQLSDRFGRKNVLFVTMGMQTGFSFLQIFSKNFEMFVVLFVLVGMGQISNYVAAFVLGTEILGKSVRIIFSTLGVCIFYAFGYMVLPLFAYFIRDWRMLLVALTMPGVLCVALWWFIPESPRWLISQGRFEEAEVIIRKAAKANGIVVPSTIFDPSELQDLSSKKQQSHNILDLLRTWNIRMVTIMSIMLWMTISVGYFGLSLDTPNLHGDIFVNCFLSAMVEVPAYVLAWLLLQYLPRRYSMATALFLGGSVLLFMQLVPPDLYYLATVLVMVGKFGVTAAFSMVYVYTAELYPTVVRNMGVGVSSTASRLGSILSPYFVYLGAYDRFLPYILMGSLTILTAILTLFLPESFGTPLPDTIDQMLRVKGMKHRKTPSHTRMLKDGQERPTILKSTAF
Method: as §1

Calu-3 cell model = test: Bidirectional transport, Calu-3 air-liquid culture model; details: Calu-3, 2 μM, Mean ± SD, n = 3

## CCC(CC)[C@H](NC(C)=O)[C@@H]1[C@H](O)[C@@H](C(=O)O)C[C@H]1N=C(N)N [Peramivir]
[1]
  exposure in alveolar epithelial lining fluid after inhalation relative to equivalent i.v. dose: exceeding 370 times
[1]; intravenous, all tissues except renal and alveolar epithelial lining
  tissue–plasma partition coefficient, Kp: < 1
Human OCT1; HEK293-OCT1
  OCT1 substrate status: does not act as a substrate
Human OCT1; HEK293-OCT1, 50 μM
  transporter-mediated uptake ratio (UR): < 1
Human OCT1; HEK293-OCT1, 50 μM, inhibitor verapamil (200 μM)
  inhibition ratio (IR): exceeding 98.51%
Human OCTN2; MDCK-OCTN2
  OCTN2 substrate status: confirming peramivir as a substrate for the OCTN2 transporter
Human OCTN2; MDCK-OCTN2, 50 μM
  transporter-mediated uptake ratio (UR value): 41.62
Human OCTN2; MDCK-OCTN2, 50 μM, inhibitor L-carnitine (200 μM)
  inhibition ratio (IR value): 65.69%
Calu-3 cell model
  Papp A-B: BLQ
  Papp B-A: BLQ
